Source: US4410535A, “Aza-bicyclo-benzamide derivatives and pharmaceutical compositions and use thereof” (Beecham Group Limited, priority 1980, dated 1983)

Columns and labels:
Format in all cases: in vivo
[1] = tested on: gastric motility inhibited by 6,7-ADTN; experiment: Gastric motility testing in the rat: reversal of the inhibitory effect of 6,7-ADTN; details: s.c., 10 minutes after 6,7-ADTN 1 mg/kg s.c.; conscious chronic gastric fistula rat
Procedure: III. Gastric Motility Testing in the rat
The compounds were tested for ability to reverse the inhibitory effect of 6,7-ADTN on gastric motility as recorded by an open tipped catheter in the conscious chronic gastric fistula rat. Administration of 1 mg/kg s.c. of 6,7-ADTN reduced basal gastric motor activity and this was reversed by the administration of 0.008 mg/kg s.c. of compound 1. administered 10 minutes after the 6,7-ADTN. […] For subcutaneous testing the compound was dissolved in water by the addition of tartaric acid (1/2 mole per mole of compound).

Dopamine Receptor = experiment: Dopamine receptor blocking activity in the CNS: inhibition of apomorphine induced climbing in the mouse; details: s.c. (table footnote), apomorphine 1 mg/kg s.c. induced climbing
[2] = tested on: vomiting response to apomorphine HCl; experiment: Anti-emetic activity in the dog (apomorphine HCl induced vomiting); details: Canis lupus familiaris, sc, 30 min before apomorphine HCl 0.1 mg/kg s.c.
Procedure: I. Anti-emetic acitivity in the dog
Compounds were administered subcutaneously 30 minutes prior to administration of a standard dose of apomorphine HCl (0.1 mg/kg subcutaneously) and the vomiting response compared to that obtained when the same animals were dosed with apomorphine HCl and vehicle only.
(§1) The tests I and II shown above for anti-emetic and CNS activity respectively were used for the comparison testing of representative Compound 1 with 4-amino-5-chloro-2-methoxy-N-(3'β-[8'-benzyl]-8-azabicyclo[3.2.1]octyl)benzamide (A'). Compound A' was chosen because of the compounds specifically disclosed in European Patent Application No. 793029978 and U.S. Pat. No. 4,273,778 it has the best anti-emetic activity and is the structurally closest compound to compound 1. Other compounds of the Examples were also submitted to tests I and II.

[3] = Therapeutic ratio for anti-emetic activity based upon CNS effects (tests I and II); details: relative to compound A'
Source text: as §1

Structure (SMILES)	dose reversing the 6,7-ADTN inhibition of gastric motor activity [1] [mg/kg]	CNS activity (ED50) (Dopamine Receptor) [mg/kg]	ED50 [2] [mg/kg]	improvement of therapeutic ratio for anti-emetic activity based upon CNS effects, compared with compound A' [3]
COc1cc(N)c(S(C)(=O)=O)cc1C(=O)N[C@@H]1C[C@H]2CC[C@@H](C1)N2Cc1ccccc1 [Compound 1, 4-Amino-2-methoxy-5-methylsulphonyl-N-[3-β-(8-benzyl-8-azabicyclo[3.2.1]octyl)]benzamide]	0.008	3.5	0.002	more than 300 times
CCS(=O)(=O)c1cc(C(=O)N[C@@H]2C[C@H]3CC[C@@H](C2)N3Cc2ccccc2)c(OC)cc1N [Compound 2, 4-Amino-5-ethylsulphonyl-2-methoxy N-[3-β-(8-benzyl-8azabicyclo{3,2,1}octyl)]benzamide]	–	3.5	0.01	–
COc1cc(N)c(S(C)(=O)=O)cc1C(=O)N[C@@H]1C[C@H]2CC[C@@H](C1)N2C [Compound 3, 4-Amino-2-methoxy-5-methylsulphonyl-N-[3β-(8-methyl-8-azabicyclo[3.2.1]octyl)]benzamide]	–	80	0.5	–
COc1cc(N)c(Cl)cc1C(=O)N[C@@H]1C[C@H]2CC[C@@H](C1)N2Cc1ccccc1 [Compound A', 4-amino-5-chloro-2-methoxy-N-(3'β-[8'-benzyl]-8-azabicyclo[3.2.1]octyl)benzamide, reference compound]	–	0.0029	0.0005	–
